Measurements as given in ChEMBL document CHEMBL1136833, “Novel non-peptide inhibitors targeting death receptor-mediated apoptosis” (Bioorg Med Chem Lett, 2003).
Activity calls are given as the source filed them. The calls are words filed in the database; no cut-off is given here.

Experiments:
Jurkat [1] = assay: Cytotoxicity against Jurkat cell growth (Type II); assay type: functional, cell-based; details: Homo sapiens
SKW 6.4 [2] = assay: Effective dose to inhibit staurosporine-induced apoptosis in SK W6.4 cells (Type I); NE=no effect; assay type: functional, cell-based; details: Homo sapiens
SKW 6.4 [3] = assay: Effective dose to inhibit FasL-induced apoptosis in SK W6.4 cells (Type I); NE=no effect; assay type: functional, cell-based; details: Homo sapiens
Jurkat [4] = assay: Effective dose to inhibit staurosporine-induced apoptosis in Jurkat cells (Type II); NE=no effect; assay type: functional, cell-based; details: Homo sapiens
Jurkat [5] = assay: Effective dose to inhibit FasL-induced apoptosis in Jurkat cells (Type II); NE=no effect; assay type: functional, cell-based; details: Homo sapiens
SKW 6.4 [6] = assay: Cytotoxicity against SK W6.4 cell growth (Type I); assay type: functional, cell-based; details: Homo sapiens
SKW 6.4 [7] = assay: Effective dose to inhibit FasL-induced apoptosis in SK W6.4 cells (Type I); assay type: functional; details: Homo sapiens, read-out: ED50 (the source's name)
Jurkat [8] = assay: Effective dose to inhibit staurosporine-induced apoptosis in Jurkat cells (Type II); assay type: functional; details: Homo sapiens, read-out: ED50 (the source's name)
SKW 6.4 [9] = assay: Effective dose to inhibit staurosporine-induced apoptosis in SK W6.4 cells (Type I); assay type: functional; details: Homo sapiens, read-out: ED50 (the source's name)
Jurkat [10] = assay: Effective dose to inhibit FasL-induced apoptosis in Jurkat cells (Type II); assay type: functional; details: Homo sapiens, read-out: ED50 (the source's name)

SMILES	EC50 (SKW 6.4 [7])	EC50 (Jurkat [8])	EC50 (SKW 6.4 [9])	EC50 (Jurkat [10])	IC50 (Jurkat [1])	ED50 (SKW 6.4 [2])	ED50 (SKW 6.4 [3])	ED50 (Jurkat [4])	ED50 (Jurkat [5])	IC50 (SKW 6.4 [6])
O=C1C(/C=C/c2ccccc2)=C(CO)[C@H](O)[C@H]2O[C@@H]12					20 µM	inactive	inactive	inactive	inactive	30 µM
O=C1C=C(CO)[C@H](O)[C@H]2O[C@@H]12	10 µM	> 80 µM	> 80 µM	18 µM	> 80 µM					> 80 µM
CCCC/C=C/C1=C(CO)C(=O)[C@H]2O[C@H]2C1=O					10 µM	inactive	inactive	inactive	inactive	7 µM
C/C=C/C1=C(CO)C(=O)[C@H]2O[C@H]2C1=O					8 µM	inactive	inactive	inactive	inactive	9 µM

The next lines start with results.

EC50 (SKW 6.4 [7])	EC50 (Jurkat [8])	EC50 (SKW 6.4 [9])	EC50 (Jurkat [10])	SMILES	IC50 (Jurkat [1])	ED50 (SKW 6.4 [2])	ED50 (SKW 6.4 [3])	ED50 (Jurkat [4])	ED50 (Jurkat [5])	IC50 (SKW 6.4 [6])
10 µM	> 80 µM	> 80 µM	10 µM	C/C=C(\C)C1=C(CO)[C@H](O)[C@H]2O[C@H]2C1=O	> 80 µM					> 80 µM
20 µM	> 80 µM	> 80 µM	25 µM	C/C=C/C1=C(CO)[C@H](OC)[C@H]2O[C@H]2C1=O	> 80 µM					> 80 µM
5 µM	> 80 µM	> 80 µM	6 µM	C/C=C/C1=C(CO)[C@H](O)[C@H]2O[C@H]2C1=O	> 80 µM					> 80 µM
10 µM				CCCC/C=C/C1=C(CO)[C@H](O)[C@H]2O[C@H]2C1=O	15 µM	inactive		inactive	inactive	35 µM
4 µM	> 80 µM	> 80 µM	6 µM	C=CC1=C(CO)[C@H](O)[C@H]2O[C@H]2C1=O	> 80 µM					> 80 µM
20 µM	> 80 µM	> 80 µM	25 µM	C/C=C/C1=C(CO)[C@@H](O)[C@@H]2O[C@@H]2C1=O	60 µM					80 µM
